Entries after “also recorded” stand apart in the source; their conditions may differ. Where no end group is shown, it is not given here.
Key:
hKv1.3 = assay: Whole-cell patch-clamp current recording, hKv1.3; assay type: cell-based, human; conditions: for inhibition of the current amplitudes of hKv1.3 by NnK-1 analogs / current of hKv1.3 (current amplitude), effect of treatment: 0.01, 1, 100, or 500 nM; for inhibition of the current amplitudes of hKv1.3 by NnK-1 analogs: Figure 6; for hKv1.3 current amplitude at 50 mV, one-way ANOVA p: overall, 0, 0.01, 1, 100, or 500 nM; for hKv1.3 IV curve, p vs. 0 nM: IV curves −130 to 50 mV (Figure 3), two-way ANOVA; for hKv1.3 IV curve, p vs. 0 nM / reduction of hKv1.3 current amplitude at 50 mV, p vs. 0 nM: Dunnett's post hoc; for reduction of hKv1.3 current amplitude at 50 mV, p vs. 0 nM: one-way ANOVA; for current of hKv1.3 (current amplitude), effect of treatment: HEK293 cells expressing hKv1.3, bath-applied for 2 min, whole-cell, holding potential –70 mV; for hKv1.3 IV curves, two-way ANOVA group effect p: group effect, 0, 0.01, 1, 100, or 500 nM, Figure 3 IV curves
Description: (§1) The amplification was performed in the Veriti™ 96-Well Fast Thermal Cycler (Applied Biosystems, Waltham, MA, USA) with a thermal cycling program consisting of predenaturation for 3 min at 95 °C, followed by 30 cycles of denaturation for 30 s at 95 °C, annealing for 30 s at 58 °C, and extension for 30 s at 72 °C, with a final extension for 3 min at 72 °C. A Human cDNA Clone Set (OriGene Technologies GmbH, Herford, Germany) was used as the template. A MCS (multi-cloning site) digested from the pAAV-MCS vector (Cell Biolabs, San Diego, CA, USA) was ligated into the pIRES2-EGFP vector (Clontech Laboratories, Mountain View, CA, USA) to form pAAV–CMV–IRES2–EGFP. The PCR products were ligated into the pAAV–CMV–IRES2–EGFP vector at the NheI and SalI sites to construct pAAV–CMV–hKv–IRES2–EGFP.
(§2) The HEK293 cells were transfected with pAAV–CMV–hKv–IRES2–EGFP (2 μg) using Effectene Transfection Reagent (Qiagen, Hilden, Germany) for 12–18 h. The transfectants (1 × 10^5/mL) were seeded onto 12 mm coverslips coated with 0.01 mg/mL poly-D-lysine for 2–3 h.
The HEK293 cells expressing AAV–CMV–hKv–IRES2–EGFP were reseeded onto coverslips. The HEK293 transfectants were monitored for their green fluorescence and used as patch cells. Patch pipettes were filled with an internal solution (140 mM potassium gluconate, 10 mM HEPES, 0.2 mM ATP, and 0.06 mM GTP). An external solution [130 mM NaCl, 10 mM HEPES, 3 mM KCl, 1.5 mM D-glucose, 10 mM sucrose, […], 1.5 mM MgCl2·6H2O, osmolarity 320 mmol/kg (pH 7.2)] was used as the basic buffer. Psora4, ShK, or NnK-1 (0, 0.01, 1, 100, or 500 nM) was bath-applied for 2 min to block the currents recorded from the HEK293 cells expressing AAV–CMV–hKv–IRES2–EGFP with voltages ranging from −130 to 50 mV in the increments of 20 mV and 0.6 s. Whole-cell patch recordings from […] under voltage-clamp conditions (holding potential of –70 mV) were made with the Multiclamp 700 B microelectrode amplifier (Automate Scientific Inc., Berkeley, CA, USA) digitized with a Digidata 1322 A data acquisition system (Molecular Devices Limited, San Jose, CA, USA). In this study, all electrophysiological data from the cultured cells were obtained at a temperature of 23–25 °C and maintained with the CL-100 Temperature Controller (Warner Instruments LLC, Hamden, CT, USA).

hKv1.4 = assay: Whole-cell patch-clamp current recording, hKv1.4; assay type: cell-based, human
Description: as §1, §2
(§3) The HEK293 cells expressing AAV–CMV–hKv–IRES2–EGFP were reseeded onto coverslips. The HEK293 transfectants were monitored for their green fluorescence and used as patch cells. Patch pipettes were filled with an internal solution (140 mM potassium gluconate, 10 mM HEPES, 0.2 mM ATP, and 0.06 mM GTP). An external solution [130 mM NaCl, 10 mM HEPES, 3 mM KCl, 1.5 mM D-glucose, 10 mM sucrose, […], 1.5 mM MgCl2·6H2O, osmolarity 320 mmol/kg (pH 7.2)] was used as the basic buffer. Psora4, ShK, or NnK-1 (0, 0.01, 1, 100, or 500 nM) was bath-applied for 2 min to block the currents recorded from the HEK293 cells expressing AAV–CMV–hKv–IRES2–EGFP with voltages ranging from −130 to 50 mV in the increments of 20 mV and 0.6 s. […]

hKv11.1 = assay: Whole-cell patch-clamp current recording, hKv11.1; assay type: cell-based, human; conditions: 100 nM NnK-1; Figure 4F; HEK293, bath-applied 2 min, 23–25 °C
Description: as §1
(§4) The HEK293 cells were transfected with pAAV–CMV–hKv–IRES2–EGFP (2 μg) using Effectene Transfection Reagent (Qiagen, Hilden, Germany) for 12–18 h. […]
(§5) The HEK293 cells expressing AAV–CMV–hKv–IRES2–EGFP were reseeded onto coverslips. The HEK293 transfectants were monitored for their green fluorescence and used as patch cells. […] Psora4, ShK, or NnK-1 (0, 0.01, 1, 100, or 500 nM) was bath-applied for 2 min to block the currents recorded from the HEK293 cells expressing AAV–CMV–hKv–IRES2–EGFP with voltages ranging from −130 to 50 mV in the increments of 20 mV and 0.6 s. […]

hKv1.5 = assay: Whole-cell patch-clamp current recording, hKv1.5; assay type: cell-based, human
Description: as §1, §2, §3

hKv3.1 = assay: Whole-cell patch-clamp current recording, hKv3.1; assay type: cell-based, human; conditions: 100 nM NnK-1; Figure 4E; HEK293, bath-applied 2 min, 23–25 °C
Description: as §1, §4, §5

hKv1.1 = assay: Whole-cell patch-clamp current recording, hKv1.1; assay type: cell-based, human; conditions: HEK293, bath-applied 2 min
Description: as §1, §4, §5

[1] = tested on: untransfected HEK293 cells; assay: Cell viability assay (CCK-8), untransfected HEK293 cells; assay type: cell-based; conditions: 1 h treatment, 0.01, 1, 100, and 500 nM; CCK-8, absorbance 450 nm
Description: (§6) The cell viability of the HEK293 cells was assessed with a Cell Counting Kit-8 (CCK-8, DJDB4000X, Dojindo laboratory, Kumanoto, Japan). Both the HEK293 cells and HEK293 cells expressing AAV–CMV–hKv–IRES2–EGFP were seeded onto a 96-well plate (1 × 10^4 cells/well). After 24 h of incubation, ShK, NnK-1, NnK-1 mu, and NnK-1 w/o d (0, 0.01, 1, 100, or 500 nM) were used to treat the cells in each well for 1 h. After that, a dye solution was used to treat the cells for 2 h, and the absorbance was measured at 450 nm using a microplate reader (GloMax explorer multimode, Promega, Madison, WI, USA).

[2] = Maintenance of disulfide bonds of synthetic NnK-1 in solution; assay type: physicochemical; conditions: dissolved in a solution; inferred from comparison with NnK-1 w/o d on hKv1.3
Text: Another peptide, NnK-1 w/o d, which had the same amino acid residues but without three pairs of disulfide bonds, was also synthesized to test whether the disulfide bonds were still intact in the synthetic NnK-1 after being dissolved in a solution.

[3] = tested on: hKv1.3-transfected HEK293 cells; assay: Cell viability assay (CCK-8), hKv1.3-transfected HEK293 cells; assay type: cell-based; conditions: 1 h treatment, 0.01, 1, 100, and 500 nM; CCK-8, absorbance 450 nm
Description: as §2, §6

[4] = HEK293, bath-applied 2 min, 23–25 °C
[5] = 100 nM, HEK293, bath-applied 2 min, 23–25 °C (Figure 4)
[6] = electrophysiological assay, summary statement
[7] = 0.01 nM, HEK293, bath-applied 2 min, pH 7.2, 23–25 °C
[8] = 1 nM, HEK293, bath-applied 2 min, pH 7.2, 23–25 °C
[9] = 1 nM, bar graph at 50 mV (Figure 3), HEK293, bath-applied 2 min, pH 7.2, 23–25 °C
[10] = 100 nM, HEK293, bath-applied 2 min, pH 7.2, 23–25 °C
[11] = 100 nM, bar graph at 50 mV (Figure 3), HEK293, bath-applied 2 min, pH 7.2, 23–25 °C
[12] = 500 nM, HEK293, bath-applied 2 min, pH 7.2, 23–25 °C
[13] = 500 nM, bar graph at 50 mV (Figure 3), HEK293, bath-applied 2 min, pH 7.2, 23–25 °C

Row | Compound | inhibition of the current amplitudes of hKv1.3 by NnK-1 analogs (hKv1.3; [4]) | hKv1.3 current amplitude at 50 mV, one-way ANOVA p (hKv1.3; Figure 6 bar graphs) | hKv1.3 IV curve, p vs. 0 nM (hKv1.3; [7]) | hKv1.3 IV curve, p vs. 0 nM (hKv1.3; [8]) | reduction of hKv1.3 current amplitude at 50 mV, p vs. 0 nM (hKv1.3; [9]) | hKv1.3 IV curve, p vs. 0 nM (hKv1.3; [10]) | reduction of hKv1.3 current amplitude at 50 mV, p vs. 0 nM (hKv1.3; [11]) | hKv1.3 IV curve, p vs. 0 nM (hKv1.3; [12]) | reduction of hKv1.3 current amplitude at 50 mV, p vs. 0 nM (hKv1.3; [13]) | current of hKv1.3 (current amplitude), effect of treatment (hKv1.3; pH 7.2, 23–25 °C) | hKv1.3 IV curves, two-way ANOVA group effect p (hKv1.3) | hKv1.3 current amplitude at 50 mV, one-way ANOVA p (hKv1.3; Figure 3 bar graphs) | other results
1 | CKDHHTYGVYCKDWKSSGECKKNPKGMRHFCRKTCGFC [NnK-1 w/o d, same amino acid residues as NnK-1 but without three pairs of disulfide bonds] | neither NnK-1 mu nor NnK-1 w/o d inhibited the current amplitudes of hKv1.3 | 0.28 |  |  |  |  |  |  |  |  |  |  | 
2 | CKDHHTYGVYCKDWKSSGECKKNPKGMRHFCRKTCGFC (disulfide (positions not given here)) [NnK-1, fifth ShK-like peptide of the Nemopilema nomurai NnK-1 precursor, chemically synthesized] |  | < 0.05 | < 0.01 | < 0.0001 | < 0.0001 | < 0.0001 | < 0.0001 | < 0.0001 | < 0.0001 | significantly reduced | < 0.0001 | < 0.0001 | hKv1.4 IV curve, two-way ANOVA group effect p (hKv1.4; 100 nM NnK-1, Figure 4C, HEK293, bath-applied 2 min, 23–25 °C): < 0.01; inhibition of the current amplitude of hKv1.4 (hKv1.4; [5]): significantly inhibited; channel block, hKv1.4 (hKv1.4; [6]): effective blocker; hKv11.1 IV curve, two-way ANOVA group effect p (hKv11.1): 0.39; hKv1.5 IV curve, two-way ANOVA group effect p (hKv1.5; 100 nM NnK-1, Figure 4D, HEK293, bath-applied 2 min, 23–25 °C): < 0.001; inhibition of the current amplitude of hKv1.5 (hKv1.5; [5]): significantly inhibited; channel block, hKv1.5 (hKv1.5; [6]): effective blocker; hKv3.1 IV curve, two-way ANOVA group effect p (hKv3.1): 0.46; hKv1.1 IV curve, two-way ANOVA group effect p (hKv1.1; 100 nM NnK-1, Figure 4A, 23–25 °C): 0.52; inhibition of the current amplitude of hKv1.1 (hKv1.1; 100 nM, 23–25 °C (Figure 4)): not that of hKv1.1, hKv3.1, and hKv.11.1; reduction of hKv1.3 current amplitude at 50 mV, p vs. 0 nM (hKv1.3; 0.01 nM, bar graph at 50 mV (Figure 3), HEK293, bath-applied 2 min, pH 7.2, 23–25 °C): < 0.05; hKv1.3 IV curve, two-way ANOVA group effect p (hKv1.3; 100 nM NnK-1, Figure 4B, HEK293, bath-applied 2 min, 23–25 °C): < 0.05; reduction of hKv1.3 current amplitude at 50 mV, p vs. 0 nM (hKv1.3; 100 nM, Figure 6B, HEK293, bath-applied 2 min): < 0.05; inhibition of the current amplitude of hKv1.3 (hKv1.3; [5]): significantly inhibited; reduction of hKv1.3 current amplitude at 50 mV, p vs. 0 nM (hKv1.3; 500 nM, Figure 6B, HEK293, bath-applied 2 min): < 0.05; channel block, hKv1.3 (hKv1.3; [6]): effective blocker; also recorded: Kv1.3-blocking activity; cell viability, untransfected HEK293 [1]: no difference; disulfide bonds in solution [2]: maintained even when dissolved in a solution; cell viability, hKv1.3-transfected HEK293 [3]: no difference
3 | CKEHHTYGVYCKDWKSSGECKKNPRGMRHFCRKMCGFC (disulfide (positions not given here)) [NnK-1 mu, NnK-1 with three amino acids substituted with 3Glu, 25Arg, and 34Met] | neither NnK-1 mu nor NnK-1 w/o d inhibited the current amplitudes of hKv1.3 | 0.89 |  |  |  |  |  |  |  |  |  |  | 
4 | O=c1ccc2c(OCCCCc3ccccc3)c3ccoc3cc2o1 [Psora4, reference compound] |  |  | < 0.05 | < 0.0001 | < 0.01 | < 0.0001 | < 0.001 | < 0.0001 | < 0.0001 | significantly reduced | < 0.0001 | < 0.0001 | 

Reference: PMC11122761, “Synthetic ShK-like Peptide from the Jellyfish Nemopilema nomurai Has Human Voltage-Gated Potassium-Channel-Blocking Activity” (Marine Drugs, 2024)
